Reference: patent US4241053A, “Novel nitrosourea compounds and process for preparing the same” (Tanabe Seiyaku Co., Ltd., priority 1978, dated 1980)

Legend:
leukemic cells = conditions: cited from earlier work
lymphoid leukemia L-1210 = conditions: tumor cells implanted intraperitoneally; cited from earlier work
[1] = Preventive effect against the growth of Ehrlich ascites tumor (Method A); type: in vivo, mice (female ICR); conditions: mouse, in vivo, ip; maximum dose with 100% inhibition of Ehrlich ascites tumor without causing death; unit from dose column; read-out: MTD (Maximum Tolerated Dose)
Procedure: (§1) (A) Preventive effect against the growth of Ehrlich ascites tumor:
(§2) 10^6 tumor cells of Ehrlich ascites carcinoma were inoculated intraperitoneally into a group of five femal mice (ICR mice, body weight: 19-23 g). A test compound was dissolved in a physiological saline solution [In the case where CCNU was employed as the test compound, said compound was suspended in a physiological saline solution containing 0.1% NIKKOL HCO-60 (trademark; a surface active agent manufactured by Nikko Chemicals Co. Ltd.)] and administered intraperioneally to the mice. The administration of the test compound was begun 24 hours after the inoculation of the tumor cells and performed once a day for 5 days. The volume of ascites in the treated mice were measured after 7 days of the experiment.
(§3) ^a T = the average volume of ascites in the treated mice
(§4) C = the average volume of ascites in the untreated mice (control group of
(§5) 100% inhibition for the growth of Ehrlich ascites tumor in mice without
(§6) causing the death of said mice)
(§7) 100% inhibition for the growth of said ascites tumor)
(§8) ^e Therapeutic index = MTD/MED
(§9) *the number of mice died/the number of mice used

[2] = tested on: Ehrlich ascites carcinoma; test: as above; type: in vivo, mice (female ICR)
Procedure: as §1, §2, §3, §4, §5, §6, §7, §8, §9

Leukemia L-1210 = test: Effect on the life span of mice implanted with leukemic cells of L-1210 (Method B); type: in vivo, mice (male BDF1)
Procedure: (B) Effect on the life span of mice implanted with leukemic cells of L-1210:
10^5 leukemic cells of L-1210 were inoculated intraperitoneally into a group of four or six male mice (BDF1 mice, body weight: 19-23 g). A test compound was dissolved in a physiological saline solution and administered intraperitoneally to the mice. The administration of the test compound was begun 24 hours after the inoculation of the leukemic cells and performed once a day for 5 days. The survival days of the treated mice were observed.
^a T = the mean survival days of the treated mice
C = the mean survival days of the untreated mice (control group of mice)
^b ILS(Increase in Life Span) =-
^c 60day survivors = the number of mice survived for 60 days/the

In the case of `O=NN(CCCl)C(=O)NC1O[C@H](CO)[C@@H](O[C@@H]2O[C@H](CO)[C@H](O)[C@H](O)[C@H]2O)[C@H](O)[C@H]1O` (stereo partly drawn) [1-(2-chloroethyl)-1-nitroso-3-(D-lactosyl)urea], the “anti-tumor activity against leukemic cells” value (leukemic cells) is listed as “show anti-tumor activity”.
In the case of `O=NN(CCCl)C(=O)NC1O[C@H](CO)[C@@H](O[C@H]2O[C@H](CO)[C@@H](O)[C@H](O)[C@H]2O)[C@H](O)[C@H]1O` (stereo partly drawn) [1-(2-chloroethyl)-1-nitroso-3-(D-maltosyl)urea], the “anti-tumor activity against leukemic cells” value (leukemic cells) is given as “show anti-tumor activity”.
In the case of `O=NN(CCCl)C(=O)NC1O[C@H](CO)[C@@H](O)[C@H](O)[C@@H]1O` (stereo partly drawn) [1-(2-chloroethyl)-1-nitroso-3-(D-mannopyranosyl)urea], the “life span of mice implanted with L-1210” value (lymphoid leukemia L-1210) is listed as “increase the life span”.
For `COCC(C)N(C(=O)N(CCCl)N=O)C1OC[C@H](O)[C@H](O)[C@H]1O` (stereo partly drawn) [Compound 6, 1-(2-chloroethyl)-1-nitroso-3-(1-methyl-2-methoxy-ethyl)-3-(L-arabinopyranosyl)urea], the MTD at 168 h [1] was 50 mg/kg/day, the “Toxic (number of mice died/number of mice used)” value ([2]; 100 mg/kg/day i.p., once a day for 5 days) was 5/5 and the “Therapeutic index (MTD/MED)” value ([2]; MTD/MED) was 64. For the same compound, the inhibition in vivo at 0.09 mg/kg ([2]; Mus musculus, Ehrlich, ip, 168 h, 0.09 mg/kg/day i.p., once a day for 5 days, read-out: Inhibition ratio) was 15.8%, the inhibition in vivo at 0.19 mg/kg ([2]; Mus musculus, Ehrlich, ip, 168 h, 0.19 mg/kg/day i.p., once a day for 5 days, read-out: Inhibition ratio) was 63.2% and the inhibition in vivo at 0.39 mg/kg ([2]; Mus musculus, Ehrlich, ip, 168 h, 0.39 mg/kg/day i.p., once a day for 5 days, read-out: Inhibition ratio) was 92.1%. For the same compound, the inhibition in vivo at 0.78 mg/kg ([2]; Mus musculus, Ehrlich, ip, 168 h, 0.78 mg/kg/day i.p., once a day for 5 days, read-out: Inhibition ratio) was 100%, the inhibition in vivo at 3.12 mg/kg ([2]; Mus musculus, Ehrlich, ip, 168 h, 3.12 mg/kg/day i.p., once a day for 5 days, read-out: Inhibition ratio) was 100% and the inhibition in vivo at 12.5 mg/kg ([2]; Mus musculus, Ehrlich, ip, 168 h, 12.5 mg/kg/day i.p., once a day for 5 days, read-out: Inhibition ratio) was 100%. The inhibition in vivo at 50 mg/kg ([2]; Mus musculus, Ehrlich, ip, 168 h, 50 mg/kg/day i.p., once a day for 5 days, read-out: Inhibition ratio) was 100%, the minimal effective dose ([2]; Mus musculus, Ehrlich, ip, 168 h, minimum dose with 100% inhibition of ascites tumor, unit from dose column, read-out: MED (Minimum Effective Dose)) was 0.78 mg/kg/day and the ILS at 1.56 mg/kg (Leukemia L-1210; Mus musculus, L1210, ip, 120 h, 1.56 mg/kg/day i.p., once a day for 5 days, read-out: ILS (Increase in Life Span)) was 57.5%. It also gave an ILS at 6.25 mg/kg (Leukemia L-1210; Mus musculus, L1210, ip, 120 h, 6.25 mg/kg/day i.p., once a day for 5 days, read-out: ILS (Increase in Life Span)) greater than 270%, an ILS at 12.5 mg/kg (Leukemia L-1210; Mus musculus, L1210, ip, 120 h, 12.5 mg/kg/day i.p., once a day for 5 days, read-out: ILS (Increase in Life Span)) greater than 722% and an ILS at 25 mg/kg (Leukemia L-1210; Mus musculus, L1210, ip, 120 h, 25 mg/kg/day i.p., once a day for 5 days, read-out: ILS (Increase in Life Span)) greater than 722%. It also gave a responders at 1.56 mg/kg (Leukemia L-1210; Mus musculus, L1210, ip, 1440 h, 1.56 mg/kg/day i.p., once a day for 5 days, read-out: 60-day survivors (mice survived for 60 days/mice used)) of 0%, a responders at 12.5 mg/kg (Leukemia L-1210; Mus musculus, L1210, ip, 1440 h, 12.5 mg/kg/day i.p., once a day for 5 days, read-out: 60-day survivors (mice survived for 60 days/mice used) (converted)) of 100% and a responders at 25 mg/kg (Leukemia L-1210; Mus musculus, L1210, ip, 1440 h, 25 mg/kg/day i.p., once a day for 5 days, read-out: 60-day survivors (mice survived for 60 days/mice used) (converted)) of 100%. The “increase in the average life span” value (Leukemia L-1210; daily dose 0.45 mg/kg i.p., five consecutive days) was “about 30%”.
